Measurements from US11584714B2 (priority 2018, dated 2023).
Structures can show the parent of a compound that is named as a salt. Where two headings read alike, the source gives them in different places.

Legend:
human α-thrombin = human α-thrombin (Homo sapiens (Human), UniProt P00734); test: Enzymatic assay for thrombin (Boc-VPR-AMC substrate); format: biochemical; conditions: read-out: Thrombin Ki
MASP-2 (CCP1-CCP2-SP) = MASP-2 (CCP1-CCP2-SP) (Homo sapiens (Human), UniProt O00187); test: biochemical; format: biochemical
Chain of MASP-2 (CCP1-CCP2-SP) (O00187 445-686): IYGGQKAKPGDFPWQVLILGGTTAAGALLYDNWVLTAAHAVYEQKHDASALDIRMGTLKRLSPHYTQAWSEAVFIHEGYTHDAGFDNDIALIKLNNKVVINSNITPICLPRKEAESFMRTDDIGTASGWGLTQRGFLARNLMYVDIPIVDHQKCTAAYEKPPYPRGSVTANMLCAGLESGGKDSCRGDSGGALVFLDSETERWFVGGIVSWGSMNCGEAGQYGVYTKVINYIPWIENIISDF

[1] = MASP-2 inhibition versus thrombin
[2] = selectivity for MASP-2 inhibition versus thrombin

| Ki (human α-thrombin) [nM] | Compound | also measured |
| --- | --- | --- |
| < 500 | N=C(N)c1ccc(CNC(=O)[C@@H]2CCN2C(=O)[C@H](N)C2CC2)cc1 [compound 1002, (S)-1-((R)-2-Amino-2-cyclopropylacetyl)-N-(4-carbamimidoylbenzyl)azetidine-2-carboxamide] | – |
| < 500 | CC(C)(C)[C@@H](N)C(=O)N1CC[C@H]1C(=O)NCc1ccc(C(=N)N)cc1 [compound 1005] | – |
| > 25000 | C[C@H](NC(=O)[C@H](N)CCc1ccccc1)C(=O)NCCCCNC(=N)N [compound 1010] | – |
| > 25000 | C[C@H](NC(=O)[C@H](N)CCc1ccccc1)C(=O)NCc1ccc(CN)cc1 [compound 1014] | – |
| – | C[C@H](NC(=O)[C@H](N)CCc1ccccc1)C(=O)NCc1cccc(Cl)c1 [compound 1021] | Ki (MASP-2 (CCP1-CCP2-SP); read-out: MASP-2 Ki): < 10000 nM |
| – | C[C@H](NC(=O)[C@H](N)CCc1ccccc1)C(=O)NCc1ccc(C(=N)N)cc1 [compound 1024] | MASP-2 vs. thrombin selectivity (MASP-2 (CCP1-CCP2-SP); [1]): ** (5.0 to 25-fold) |
| < 500 | N=C(N)c1ccc(CNC(=O)[C@@H]2CCN2C(=O)[C@H]2CC3CCCCC3N2)cc1 (stereo partly drawn) [compound 1026] | – |
| < 500 | N=C(N)c1ccc(CNC(=O)[C@@H]2CCN2C(=O)[C@H](NCC(=O)O)C2CC2)cc1 [compound 1028, ((R)-2-((S)-2-((4-carbamimidoylbenzyl)carbamoyl)azetidin-1-yl)-1-cyclopropyl-2-oxoethyl)glycine] | – |
| – | C[C@H](NC(=O)[C@H]1C=C(c2ccccc2)CN1)C(=O)NCc1ccc(C(=N)N)cc1 [compound 1032] | Ki (MASP-2 (CCP1-CCP2-SP); read-out: MASP-2 Ki): < 500 nM |
| < 500 | C[C@H](NC(=O)[C@H](N)CCc1ccc(F)cc1)C(=O)NCc1ccc(C(=N)N)cc1 [compound 1047] | – |
| – | N=C(N)c1ccc(CNC(=O)C(CF)NC(=O)[C@H](N)CCc2ccccc2)cc1 (stereo partly drawn) [compound 1050, (2R)-2-Amino-N-(1-((4-carbamimidoylbenzyl)amino)-3-fluoro-1-oxopropan-2-yl)-4-phenylbutanamide Dihydrochloride] | Ki (MASP-2 (CCP1-CCP2-SP); read-out: MASP-2 Ki): < 500 nM |
| > 25000 | C[C@H](NC(=O)[C@H]1C[C@H](c2ccccc2)CN1)C(=O)NCc1ccc(C(=N)NO)cc1 [compound 1070] | – |
| < 500 | CC(=O)N[C@@H](C(=O)N1CC[C@H]1C(=O)NCc1ccc(C(=N)N)cc1)C1CCCCC1 [compound 1077] | – |
| – | N[C@H](CCc1ccccc1)C(=O)N1CCC[C@H]1C(=O)NCc1cc(Cl)ccc1O [compound 1079, (S)-1-((R)-2-Amino-4-phenylbutanoyl)-N-(5-chloro-2-hydroxybenzyl)pyrrolidine-2-carboxamide] | Ki (MASP-2 (CCP1-CCP2-SP); read-out: MASP-2 Ki): < 500 nM |
| – | C[C@H](NC(=O)[C@H](N)CCc1cccc(Cl)c1)C(=O)NCc1ccc(C(=N)N)cc1 [compound 1081] | MASP-2 vs. thrombin selectivity (MASP-2 (CCP1-CCP2-SP); [1]): ** (5.0 to 25-fold) |
| < 500 | CN(CC(=O)NCc1ccc(C(=N)N)cc1)C(=O)[C@H](NCC(=O)O)C1CCCCC1 [compound 1096] | – |
| – | C[C@H](NC(=O)[C@H]1Cc2c([nH]c3ccccc23)CN1)C(=O)NCc1ccc(C(=N)N)cc1 [compound 1097] | MASP-2 vs. thrombin selectivity (MASP-2 (CCP1-CCP2-SP); [1]): *** (25 to 100-fold) |
| < 500 | N=C(N)c1ccc(CNC(=O)[C@@H]2CCN2C(=O)[C@H](NCC(=O)O)c2ccccc2)cc1 [compound 1100] | – |
| < 500 | N=C(N)c1ccc(CNC(=O)[C@@H]2CCN2C(=O)[C@H](NCC(N)=O)C2CCCCC2)cc1 [compound 1102, (S)-1-((R)-2-((2-amino-2-oxoethyl)amino)-2-cyclohexylacetyl)-N-(4-carbamimidoylbenzyl)azetidine-2-carboxamide] | – |
| < 500 | CC[C@H](NC(=O)[C@H](NCC(=O)O)C1CCCCC1)C(=O)NCc1ccc(C(=N)N)cc1 [compound 1106] | – |

| Ki (human α-thrombin) [nM] | Compound | also measured |
| --- | --- | --- |
| < 500 | CC(C)N(CC(=O)NCc1ccc(C(=N)N)cc1)C(=O)[C@H](NCC(=O)O)C1CCCCC1 [compound 1117] | – |
| – | C[C@H](NC(=O)[C@H](N)CCc1cc(Cl)cc(Cl)c1)C(=O)NCc1ccc(C(=N)N)cc1 [compound 1118] | MASP-2 vs. thrombin selectivity (MASP-2 (CCP1-CCP2-SP); [1]): ** (5.0 to 25-fold) |
| – | C[C@H](NC(=O)[C@H](N)CCc1ccc(C(F)(F)F)cc1)C(=O)NCc1ccc(C(=N)N)cc1 [compound 1119, (R)-2-Amino-N—((S)-1-((4-carbamimidoylbenzyl)amino)-1-oxopropan-2-yl)-4-(4-(trifluoromethyl)phenyl)butanamide Dihydrochloride] | Ki (MASP-2 (CCP1-CCP2-SP); read-out: MASP-2 Ki): < 500 nM |
| < 500 | CC(C)(C)OC(=O)N[C@@H](C(=O)N1CCC[C@H]1C(=O)NCc1ccc(C(=N)N)cc1)C1CCCCC1 [compound 1138] | – |
| – | C[C@H](NC(=O)[C@@H](CCc1ccccc1)NCc1ccc(N2CCNCC2)cc1)C(=O)NCc1ccc(C(=N)N)cc1 [compound 1148, (R)—N—((S)-1-((4-Carbamimidoylbenzyl)amino)-1-oxopropan-2-yl)-4-phenyl-2-((4-(piperazin-1-yl)benzyl)amino)butanamide] | Ki (MASP-2 (CCP1-CCP2-SP); read-out: MASP-2 Ki): < 500 nM |
| – | C[C@H](NC(=O)[C@@H](CCc1ccccc1)NCc1ccc(C(=O)N2CCOCC2)cc1)C(=O)NCc1ccc(C(=N)N)cc1 [compound 1153] | MASP-2 vs. thrombin selectivity (MASP-2 (CCP1-CCP2-SP); [1]): **** (>100-fold) |
| < 500 | N=C(N)c1ccc(CNC(=O)[C@H]2CCCCN2C(=O)[C@H](NCC(=O)O)C2CCCCC2)cc1 [compound 1154] | – |
| < 500 | N=C(N)c1ccc(CNC(=O)[C@@H]2CCN2C(=O)[C@H](N)CC2CCCCC2)cc1 [compound 1158] | – |
| > 25000 | C[C@H](NC(=O)[C@H](N)CCc1ccccc1)C(=O)NCc1cc(Cl)ccc1Cl [compound 1192] | – |
| > 25000 | Cc1cc(N)nc(C)c1CNC(=O)[C@H](C)NC(=O)[C@H](N)CCc1ccccc1 [compound 1213] | – |
| – | Cc1ccc(-c2c[nH]c(C(=O)N[C@@H](C)C(=O)NCc3ccc(C(=N)N)cc3)c2)cc1F [compound 1235, (S)—N-(1-((4-Carbamimidoylbenzyl)amino)-1-oxopropan-2-yl)-4-(3-fluoro-4-methylphenyl)-1H-pyrrole-2-carboxamide] | Ki (MASP-2 (CCP1-CCP2-SP); read-out: MASP-2 Ki): < 500 nM; MASP-2 vs. thrombin selectivity (MASP-2 (CCP1-CCP2-SP); [2]): *** (≥25 to <100-fold) |
| > 25000 | CCOC(=O)NC(=N)c1ccc(CNC(=O)[C@H](C)NC(=O)[C@H]2C[C@H](c3ccccc3)CN2)cc1 [compound 1294, Ethyl (imino(4-(((S)-2-((2R,4R)-4-phenylpyrrolidine-2-carboxamido)propanamido)methyl)phenyl)methyl)carbamate] | – |
| – | C[C@H](NC(=O)[C@H](N)CCc1ccccc1)C(=O)NCc1cc(Cl)ccc1C#N [compound 1313, Trifluoroacetate salt] | MASP-2 vs. thrombin selectivity (MASP-2 (CCP1-CCP2-SP); [2]): * (≥1.0 to <5.0-fold) |
| – | COc1cc(C[C@@H]2CN[C@@H](C(=O)N[C@@H](C)C(=O)NCc3cc(Cl)ccc3-n3cnnn3)C2)cc(OC)c1 [compound 1419, (2R,4S)—N—((S)-1-((5-Chloro-2-(JH-tetrazol-1-yl)benzyl)amino)-1-oxopropan-2-yl)-4-(3,5-dimethoxybenzyl)pyrrolidine-2-carboxamide Trifluoroacetate salt] | MASP-2 vs. thrombin selectivity (MASP-2 (CCP1-CCP2-SP); [2]): * (≥1.0 to <5.0-fold) |
| – | N=C(N)c1ccc2[nH]c(-c3nc4ccccc4[nH]3)nc2c1 [compound 2009, 1H,1′H-[2,2′-bibenzo[d]imidazole-5-carboximidamidedihydrochloride] | Ki (MASP-2 (CCP1-CCP2-SP)): > 25000 nM; Ki (MASP-2 (CCP1-CCP2-SP); +Zn, read-out: MASP-2 Ki): < 500 nM |
| – | N=C(N)c1ccc(CNC(=O)Cn2c(=O)n(Cc3ccccc3)c(=O)c3ccc(C(N)=O)cc32)cc1 [compound 2017, ((4-((2-(3-Benzyl-7-carbamoyl-2,4-dioxo-3,4-dihydroquinazolin-1(2H)-yl)acetamido)methyl)phenyl)(imino)methyl)-λ^5-azaneyl Acetate] | Ki (human α-thrombin; Zn/EDTA condition not given): > 25000 nM |
| – | CNC(=O)c1ccc2c(=O)n(Cc3ccccc3)c(=O)n(CC(=O)NCc3ccc(C(=N)N)cc3)c2c1 [compound 2018, 3-Benzyl-1-(2-((4-carbamimidoylbenzyl)amino)-2-oxoethyl)-N-methyl-2,4-dioxo-1,2,3,4-tetrahydroquinazoline-7-carboxamide] | Ki (human α-thrombin; Zn/EDTA condition not given): > 25000 nM |
| – | CCCCCn1c(=O)c2ccccc2n(CC(=O)Nc2ccc(NC(C)=O)cc2)c1=O [compound 2019] | Ki (human α-thrombin; Zn/EDTA condition not given): > 25000 nM |
| – | CCCCn1c(=O)c2ccccc2n(CC(=O)Nc2ccc(NC(C)=O)cc2)c1=O [compound 2020] | Ki (human α-thrombin; Zn/EDTA condition not given): > 25000 nM |
| – | N=C(N)c1ccc(CNC(=O)Cn2c(=O)n(Cc3ccccc3)c(=O)c3ccc(C(=O)NC4CCCCC4)cc32)cc1 [compound 2021, 3-Benzyl-1-(2-((4-carbamimidoylbenzyl)amino)-2-oxoethyl)-N-cyclohexyl-2,4-dioxo-1,2,3,4-tetrahydroquinazoline-7-carboxamide] | Ki (human α-thrombin; Zn/EDTA condition not given): > 25000 nM |

| Compound | Ki (human α-thrombin) [nM] | also measured |
| --- | --- | --- |
| N=C(N)c1ccc(CNC(=O)[C@@H]2CCN2C(=O)[C@H]2CCCN2)cc1 [compound 1003] | < 500 | – |
| N=C(N)NCCCNC(=O)[C@@H]1CCN1C(=O)[C@H](N)C1CCCCC1 [compound 1004, (S)-1-((R)-2-Amino-2-cyclohexylacetyl)-N-(3-guanidinopropyl)azetidine-2-carboxamide Hydrochloride] | < 500 | – |
| C[C@H](NC(=O)[C@H]1C[C@H](c2ccccc2)CN1)C(=O)NCc1ccc(N)nc1 [compound 1012] | > 25000 | – |
| N=C(N)c1ccc(CNC(=O)[C@@H]2CCN2C(=O)[C@H](O)C2CCCCC2)cc1 [compound 1020] | < 500 | MASP-2 vs. thrombin selectivity (MASP-2 (CCP1-CCP2-SP); [1]): −− (less than 1.0-fold); Ki (MASP-2 (CCP1-CCP2-SP); read-out: MASP-2 Ki): < 500 nM |
| C[C@H](NC(=O)[C@H](N)CCc1ccccc1)C(=O)NCc1ccc(C(=N)NO)cc1 [compound 1157, (R)-2-Amino-N—((S)-1-((4-(N-hydroxycarbamimidoyl)benzyl)amino)-1-oxopropan-2-yl)-4-phenylbutanamide Dihydrochloride] | > 25000 | – |
| C[C@H](NC(=O)[C@H]1C[C@@H](c2ccccc2)CN1)C(=O)NCc1ccc(N)nc1 [compound 1255, (2R,4S)—N—((S)-1-(((6-Aminopyridin-3-yl)methyl)amino)-1-oxopropan-2-yl)-4-phenylpyrrolidine-2-carboxamide] | > 25000 | – |
| Cc1nc(N)ccc1CNC(=O)[C@H](C)NC(=O)[C@H]1C[C@@H](c2cccc(CN)c2)CN1 [compound 1291, (2R,4S)—N—((S)-1-(((6-Amino-2-methylpyridin-3-yl)methyl)amino)-1-oxopropan-2-yl)-4-(3-(aminomethyl)phenyl)pyrrolidine-2-carboxamide] | > 25000 | – |
